Biological target: T1, OR10Q1 (Homo sapiens, UniProt Q8NGQ4)
T1 construct: specific primers, which amplify the complete open reading frame; expressed in transfected cells; host or cells: HEK293
T1 sequence (Q8NGQ4 1-319): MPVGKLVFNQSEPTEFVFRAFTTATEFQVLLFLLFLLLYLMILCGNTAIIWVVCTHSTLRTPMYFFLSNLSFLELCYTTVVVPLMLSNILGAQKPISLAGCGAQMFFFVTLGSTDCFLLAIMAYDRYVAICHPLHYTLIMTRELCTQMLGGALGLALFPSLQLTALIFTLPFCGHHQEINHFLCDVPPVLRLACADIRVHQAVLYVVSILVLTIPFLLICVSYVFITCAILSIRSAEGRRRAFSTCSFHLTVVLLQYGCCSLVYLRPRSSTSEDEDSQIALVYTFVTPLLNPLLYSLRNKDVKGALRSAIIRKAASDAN
Assay: CRE-luciferase assay, OR10Q1 in HANA3A cells
Format: cell-based
Settings: 50 μM, 100 μM, 150 μM, 200 μM and 250 μM; ratio of firefly to renila
Experimental: Calcium cations and phosphate anions created crystal precipitations coupled with DNA which could invade into the cells through endocytosis. Cells were transiently transfected with plasmid DNA which consists of pCI expression vector and PCR-amplified full-length cDNA of olfactory receptors candidates, and also Gα15, RTP1, Myr-Ric8A, HSC70, and m-Cherry as cofactors. The precipitation could be created after 15-20 min, with dropping the transfection solution on HEK293 cells. Before measuring by Ca-imaging cells were incubated 48-60 hours at 370 C, 5% CO2. Cationic liposome-mediated transfection method was applied to transfect DNA plasmid transiently in HANA3A cells in case of CRE-Luciferase and CRE-SEAP assays. […]
ORs responded by Ca-imaging with seven separate odorant mixtures formed from 66 odorants. […] Transfected HANA3A cells on poly-D-lysine-coated 96 well plates are ready for stimulation after 24 h. […] Measuring by plate reader (Luminometer). • 6. […] Measuring by plate reader (Luminometer). • 8. According to manufacturer's protocols for measuring luciferase and renilla activities, calculate normalized luciferase activity with using the formula (Ln-Lmin)/(Lmax-Lmin), where Ln is the luminescence of firefly in response to the odorant, L min is the minimum luciferase value on a plate, and L max is the maximum luciferase value on plate. […]

## O=C1CCCCCCCCCCCCCCO1 [Pentadecanolide, ω-cyclopentadecanolide]
  CRE-luciferase (cAMP assay) response of OR10Q1: positive responses

Source: patent US9939427B2, “Method for evaluating the scent performance of perfumes or perfume mixtures” (Symrise AG, priority 2013, dated 2018)
